In the NIST ThermoML archive (doi:10.1016/j.fluid.2013.06.031):

Settings: Liquid, Closed cell (Static) method

CC(F)(F)CC(F)(F)F [1,1,1,3,3-pentafluorobutane]
Settings	vapor or sublimation pressure [kPa]
332.79 K	194.9
333.18 K	197.1
342.65 K	261.5
347.94 K	303.9
352.87 K	348.7
357.77 K	401.1
363.03 K	459.2
367.94 K	519.8
372.87 K	586.1
378.04 K	662.3
382.95 K	741.4
387.88 K	828.9
393.02 K	927.2
398.06 K	1036.4
402.92 K	1146
408.07 K	1271.5
413.09 K	1403.8
418 K	1542.4
423.13 K	1698.6
428.15 K	1862.7
433.05 K	2034.5
438.03 K	2225.4
442.99 K	2425.5
447.89 K	2637.1
